Source: ChEMBL document CHEMBL3124792, “Discovery and preclinical characterization of the cyclopropylindolobenzazepine BMS-791325, a potent allosteric inhibitor of the hepatitis C virus NS5B polymerase” (J Med Chem, 2014)

Legend:
Hepatitis C virus [1] = experiment: Ratio of EC50 for Hepatitis C virus Con1 genotype 1b in presence of 40% human serum to EC50 for Hepatitis C virus Con1 genotype 1b; assay type: functional, Hepacivirus hominis, isolate Con1
[2] = Cytotoxicity against human HuH7 cells by Alamar blue assay; assay type: cell-based; conditions: Huh-7 cells
PXR (NR1I2) = biological target: T1, PXR (NR1I2) (Homo sapiens, UniProt O75469); experiment: Transactivation of human PXR expressed in human HepG2 cells by luciferase reporter gene assay relative to control; assay type: cell-based; conditions: HepG2 cells expressing human PXR, read-out: %max
T1 sequence (O75469 whole entry): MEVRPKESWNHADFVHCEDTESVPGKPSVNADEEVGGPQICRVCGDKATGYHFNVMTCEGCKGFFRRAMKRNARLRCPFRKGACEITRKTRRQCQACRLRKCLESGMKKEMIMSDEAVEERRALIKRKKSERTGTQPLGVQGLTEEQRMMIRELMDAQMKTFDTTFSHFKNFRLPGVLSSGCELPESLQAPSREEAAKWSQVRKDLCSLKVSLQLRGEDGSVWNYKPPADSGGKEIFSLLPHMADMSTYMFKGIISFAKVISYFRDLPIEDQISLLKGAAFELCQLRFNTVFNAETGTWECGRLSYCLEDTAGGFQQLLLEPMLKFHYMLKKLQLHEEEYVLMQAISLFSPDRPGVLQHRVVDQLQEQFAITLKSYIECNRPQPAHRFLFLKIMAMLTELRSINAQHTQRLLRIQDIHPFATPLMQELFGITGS

Hepatitis C virus [3] = experiment: Antiviral activity against Hepatitis C virus H77c genotype 1a infected in human HuH7 cells after 3 days by FRET assay; assay type: functional, organism-based, Hepacivirus hominis; conditions: genotype 1a H77, Huh-7, 72 h
[4] = biological target: T2, Nuclear receptor subfamily 1 group I member 2 (Homo sapiens, UniProt O75469); experiment: Transactivation of human PXR expressed in human HepG2 cells by luciferase reporter gene assay; assay type: cell-based
T2 sequence (O75469 whole entry): T1 sequence (O75469 whole entry)

Hepatitis C virus [5] = experiment: Antiviral activity against Hepatitis C virus Con1 genotype 1b infected in human HuH7 cells after 3 days by FRET assay; assay type: functional, organism-based, Hepacivirus hominis; conditions: isolate Con1, Huh-7, 72 h
Hepatitis C virus [6] = experiment: Antiviral activity against Hepatitis C virus Con1 genotype 1b infected in human HuH7 cells after 3 days by FRET assay in presence of 40% human serum; assay type: functional, organism-based, Hepacivirus hominis; conditions: isolate Con1, Huh-7, 72 h
Cytochrome P450 2C9 = Cytochrome P450 2C9 (Homo sapiens, UniProt P11712); experiment: Inhibition of CYP2C9 in human liver microsomes after 30 mins in presence of NADPH; assay type: ADME
Cytochrome P450 2C9, sequence (P11712 whole entry): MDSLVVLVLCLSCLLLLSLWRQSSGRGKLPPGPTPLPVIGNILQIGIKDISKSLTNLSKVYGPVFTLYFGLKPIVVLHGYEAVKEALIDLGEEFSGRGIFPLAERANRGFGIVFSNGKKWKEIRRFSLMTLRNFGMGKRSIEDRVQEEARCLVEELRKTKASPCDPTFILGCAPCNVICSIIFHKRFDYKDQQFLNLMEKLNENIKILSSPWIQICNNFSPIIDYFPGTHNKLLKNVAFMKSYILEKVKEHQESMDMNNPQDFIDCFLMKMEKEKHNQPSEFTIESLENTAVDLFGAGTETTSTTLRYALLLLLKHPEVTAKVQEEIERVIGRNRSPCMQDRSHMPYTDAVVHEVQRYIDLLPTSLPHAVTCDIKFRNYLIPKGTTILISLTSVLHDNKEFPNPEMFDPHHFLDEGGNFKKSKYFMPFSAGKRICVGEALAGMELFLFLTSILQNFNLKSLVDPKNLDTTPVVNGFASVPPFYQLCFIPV

[7] = biological target: Voltage-gated inwardly rectifying potassium channel KCNH2 (Homo sapiens, UniProt Q12809); experiment: Inhibition of human ERG by fluorescence-based thallium flux assay
Voltage-gated inwardly rectifying potassium channel KCNH2, sequence (Q12809 whole entry): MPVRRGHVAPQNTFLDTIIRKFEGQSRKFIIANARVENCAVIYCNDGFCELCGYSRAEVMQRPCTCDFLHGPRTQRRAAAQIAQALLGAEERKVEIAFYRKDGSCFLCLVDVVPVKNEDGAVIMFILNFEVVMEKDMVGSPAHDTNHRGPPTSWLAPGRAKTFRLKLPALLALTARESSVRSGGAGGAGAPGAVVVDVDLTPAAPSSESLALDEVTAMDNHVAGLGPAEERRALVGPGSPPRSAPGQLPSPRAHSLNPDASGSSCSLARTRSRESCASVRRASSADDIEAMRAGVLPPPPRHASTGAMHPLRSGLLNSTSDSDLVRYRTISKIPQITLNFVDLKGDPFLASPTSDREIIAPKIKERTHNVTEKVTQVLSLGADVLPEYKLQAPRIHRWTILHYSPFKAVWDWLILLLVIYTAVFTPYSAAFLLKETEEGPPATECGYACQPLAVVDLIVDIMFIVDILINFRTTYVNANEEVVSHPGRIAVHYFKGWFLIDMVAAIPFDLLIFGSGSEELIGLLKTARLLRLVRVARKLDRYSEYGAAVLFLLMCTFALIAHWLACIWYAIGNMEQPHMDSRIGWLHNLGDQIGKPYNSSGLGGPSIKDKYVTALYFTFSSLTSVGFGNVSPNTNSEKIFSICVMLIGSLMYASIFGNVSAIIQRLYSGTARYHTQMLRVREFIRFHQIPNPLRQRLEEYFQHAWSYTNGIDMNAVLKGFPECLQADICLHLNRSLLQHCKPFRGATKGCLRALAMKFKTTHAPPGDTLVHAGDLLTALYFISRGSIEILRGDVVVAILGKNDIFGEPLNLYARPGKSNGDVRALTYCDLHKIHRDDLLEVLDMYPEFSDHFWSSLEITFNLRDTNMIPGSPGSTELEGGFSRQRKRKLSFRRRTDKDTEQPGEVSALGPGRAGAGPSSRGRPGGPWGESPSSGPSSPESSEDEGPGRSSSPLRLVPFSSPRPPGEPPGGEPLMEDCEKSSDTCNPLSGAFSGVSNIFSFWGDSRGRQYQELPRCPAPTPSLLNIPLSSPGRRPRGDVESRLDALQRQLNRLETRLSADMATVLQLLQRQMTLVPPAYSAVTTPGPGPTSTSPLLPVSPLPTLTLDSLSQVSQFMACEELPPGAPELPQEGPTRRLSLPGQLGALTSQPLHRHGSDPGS

[8] = Permeability of the compound at pH 7.4 by PAMPA; assay type: physicochemical; conditions: read-out: permeability
Cytochrome P450 3A4 = Cytochrome P450 3A4 (Homo sapiens, UniProt P08684); experiment: Inhibition of CYP3A4 in human liver microsomes using benzyloxyresorufin as substrate after 30 mins in presence of NADPH; assay type: ADME
Cytochrome P450 3A4, sequence (P08684 whole entry): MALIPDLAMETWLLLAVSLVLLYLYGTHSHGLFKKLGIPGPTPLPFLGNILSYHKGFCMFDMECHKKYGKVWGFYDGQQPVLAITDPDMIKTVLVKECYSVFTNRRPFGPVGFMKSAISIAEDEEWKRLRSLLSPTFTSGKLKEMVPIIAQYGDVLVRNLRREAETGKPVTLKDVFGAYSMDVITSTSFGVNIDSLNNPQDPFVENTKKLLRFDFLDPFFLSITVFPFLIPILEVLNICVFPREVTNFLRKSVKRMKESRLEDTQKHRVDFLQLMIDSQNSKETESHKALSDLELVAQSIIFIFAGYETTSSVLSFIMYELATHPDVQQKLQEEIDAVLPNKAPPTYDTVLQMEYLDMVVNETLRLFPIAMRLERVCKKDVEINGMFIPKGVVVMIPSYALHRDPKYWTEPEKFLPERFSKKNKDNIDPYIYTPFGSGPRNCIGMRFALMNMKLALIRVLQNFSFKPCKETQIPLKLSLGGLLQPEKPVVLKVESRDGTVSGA

Liver microsome [9] = conditions: human, microsomes
Cytochrome P450 1A2 = biological target: T3, Cytochrome P450 1A2 (Homo sapiens, UniProt P05177); experiment: Inhibition of CYP1A2 in human liver microsomes after 30 mins in presence of NADPH; assay type: ADME
T3 sequence (P05177 whole entry): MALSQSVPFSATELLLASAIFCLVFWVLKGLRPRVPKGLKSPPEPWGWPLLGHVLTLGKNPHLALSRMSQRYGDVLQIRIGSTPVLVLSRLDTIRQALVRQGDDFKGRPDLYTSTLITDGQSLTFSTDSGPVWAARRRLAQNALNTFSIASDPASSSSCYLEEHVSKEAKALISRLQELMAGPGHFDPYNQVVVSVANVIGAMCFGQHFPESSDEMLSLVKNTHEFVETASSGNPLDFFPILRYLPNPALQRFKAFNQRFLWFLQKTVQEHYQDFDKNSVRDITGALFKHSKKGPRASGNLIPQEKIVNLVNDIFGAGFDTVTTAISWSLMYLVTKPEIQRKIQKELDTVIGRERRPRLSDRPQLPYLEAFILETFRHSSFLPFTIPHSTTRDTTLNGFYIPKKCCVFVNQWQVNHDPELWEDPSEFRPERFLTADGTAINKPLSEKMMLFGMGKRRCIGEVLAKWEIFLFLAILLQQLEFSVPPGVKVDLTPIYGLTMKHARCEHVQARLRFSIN

Cytochrome P450 2C19 = Cytochrome P450 2C19 (Homo sapiens, UniProt P33261); experiment: Inhibition of CYP2C19 in human liver microsomes after 30 mins in presence of NADPH; assay type: ADME
Cytochrome P450 2C19, sequence (P33261 whole entry): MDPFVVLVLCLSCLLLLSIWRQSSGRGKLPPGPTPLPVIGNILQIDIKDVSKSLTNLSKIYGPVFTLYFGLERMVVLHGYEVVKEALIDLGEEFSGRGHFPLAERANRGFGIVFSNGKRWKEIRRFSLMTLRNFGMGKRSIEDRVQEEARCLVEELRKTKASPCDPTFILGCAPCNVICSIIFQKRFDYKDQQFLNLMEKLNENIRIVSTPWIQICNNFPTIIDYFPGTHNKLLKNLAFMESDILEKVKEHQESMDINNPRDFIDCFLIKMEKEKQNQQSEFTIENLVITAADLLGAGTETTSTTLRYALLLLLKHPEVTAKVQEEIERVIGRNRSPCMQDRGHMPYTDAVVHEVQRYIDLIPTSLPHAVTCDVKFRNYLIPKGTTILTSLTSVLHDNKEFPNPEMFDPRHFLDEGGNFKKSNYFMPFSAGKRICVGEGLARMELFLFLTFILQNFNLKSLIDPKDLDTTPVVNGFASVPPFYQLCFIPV

Cytochrome P450 2D6 = Cytochrome P450 2D6 (Homo sapiens, UniProt P10635); experiment: Inhibition of CYP2D6 in human liver microsomes after 30 mins in presence of NADPH; assay type: ADME
Cytochrome P450 2D6, sequence (P10635 whole entry): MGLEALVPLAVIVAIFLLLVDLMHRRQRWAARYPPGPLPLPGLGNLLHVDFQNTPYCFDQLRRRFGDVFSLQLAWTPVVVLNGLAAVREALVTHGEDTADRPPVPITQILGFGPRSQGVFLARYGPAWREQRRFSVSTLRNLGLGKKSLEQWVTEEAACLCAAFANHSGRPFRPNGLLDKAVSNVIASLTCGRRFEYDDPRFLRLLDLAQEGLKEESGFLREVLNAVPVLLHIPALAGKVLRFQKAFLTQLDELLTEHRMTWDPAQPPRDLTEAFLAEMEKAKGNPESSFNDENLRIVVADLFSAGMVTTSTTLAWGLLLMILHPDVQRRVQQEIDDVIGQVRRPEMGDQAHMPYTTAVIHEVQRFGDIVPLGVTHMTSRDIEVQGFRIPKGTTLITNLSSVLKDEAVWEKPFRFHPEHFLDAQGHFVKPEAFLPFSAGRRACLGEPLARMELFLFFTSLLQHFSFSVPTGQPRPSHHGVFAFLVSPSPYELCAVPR

Liver microsome [10] = conditions: rat, microsomes
HepG2 = experiment: Cytotoxicity against human HepG2 cells; assay type: cell-based

Row | EC50 (Hepatitis C virus [6]) [µM] | SMILES | Ratio EC50 (Hepatitis C virus [1]) | CC50 [2] [µM] | Emax (PXR (NR1I2)) [%] | EC50 (Hepatitis C virus [3]) [µM] | EC50 [4] [µM] | EC50 (Hepatitis C virus [5]) [µM] | EC50 (Cytochrome P450 2C9) [µM] | EC50 [7] [µM] | Papp [8] [×10⁻⁶ cm/s] | EC50 (Cytochrome P450 3A4) [µM] | Stability (Liver microsome [9]) [%] | EC50 (Cytochrome P450 1A2) [µM] | EC50 (Cytochrome P450 2C19) [µM] | EC50 (Cytochrome P450 2D6) [µM] | Stability (Liver microsome [10]) [%] | EC50 (HepG2) [µM]
1 | 0.036 | COC[C@H]1CN(C(=O)[C@]23C[C@H]2c2cc(OC)ccc2-c2c(C4CCCCC4)c4ccc(C(=O)NS(=O)(=O)N(C)C)cc4n2C3)CCO1 | 3 | > 10 | 12 | 0.006 | > 50 | 0.012 | – | – | – | – | – | – | – | – | – | –
2 | – | COc1ccc2c(c1)C1CC1(C(=O)N1C3CC1CN(Cc1ccccc1)C3)Cn1c-2c(C2CCCCC2)c2ccc(C(=O)NS(=O)(=O)N(C)C)cc21 (racemic) | – | > 10 | 22 | 0.035 | 2 | 0.162 | 7 | > 80 | 56 | 13 | 80 | > 13 | 31 | > 40 | 100 | 22
